Test [1] deals with T1, Glucagon receptor (Homo sapiens, UniProt P47871). The experiment in a line: Antagonist activity at human GCGR expressed in CHO cells assessed as inhibition of glucagon-stimulated cAMP production preincubated for 30 mins followed by glucagon induction measured after 45 mins by LANCE assay. It counts as functional, cell-based. Background: cAMP levels reflect the balance of adenylyl cyclase and phosphodiesterase activity.

Test [2] deals with T1, Glucagon receptor. The experiment in a line: biochemical. Format: cell-based, CHO.
Description: Displacement of [125I]-glucagon from recombinant human GCGR expressed in CHO cells after 60 mins by scintillation counting analysis
The target in test [3] is Glucagon-like peptide 1 receptor (Homo sapiens, UniProt P43220). As to the kind of experiment: Antagonist activity at human GLP-1R expressed in CHO cells assessed as inhibition of GLP-1-stimulated cAMP production preincubated for 30 mins followed by GLP-1 induction measured after 45 mins by LANCE assay. It counts as functional, cell-based.
In test [4] the target is Glucagon receptor (Mus musculus, UniProt Q61606). It counts as cell membranes, Liver, Membrane.
Description: Displacement of [125I]-glucagon from GCGR in mouse liver membranes after 60 mins by scintillation counting analysis

Results on 14 compounds are retold here after ChEMBL document CHEMBL3232855, “The discovery of N-((2H-tetrazol-5-yl)methyl)-4-((R)-1-((5r,8R)-8-(tert-butyl)-3-(3,5-dichlorophenyl)-2-oxo-1,4-diazaspiro[4.5]dec-3-en-1-yl)-4,4-dimethylpentyl)benzamide (SCH 900822): a potent and selective glucagon receptor antagonist” (J Med Chem, 2014).

By IC50 is commonly meant the concentration that inhibits the measured activity by half.

T1 sequence (P47871 whole entry): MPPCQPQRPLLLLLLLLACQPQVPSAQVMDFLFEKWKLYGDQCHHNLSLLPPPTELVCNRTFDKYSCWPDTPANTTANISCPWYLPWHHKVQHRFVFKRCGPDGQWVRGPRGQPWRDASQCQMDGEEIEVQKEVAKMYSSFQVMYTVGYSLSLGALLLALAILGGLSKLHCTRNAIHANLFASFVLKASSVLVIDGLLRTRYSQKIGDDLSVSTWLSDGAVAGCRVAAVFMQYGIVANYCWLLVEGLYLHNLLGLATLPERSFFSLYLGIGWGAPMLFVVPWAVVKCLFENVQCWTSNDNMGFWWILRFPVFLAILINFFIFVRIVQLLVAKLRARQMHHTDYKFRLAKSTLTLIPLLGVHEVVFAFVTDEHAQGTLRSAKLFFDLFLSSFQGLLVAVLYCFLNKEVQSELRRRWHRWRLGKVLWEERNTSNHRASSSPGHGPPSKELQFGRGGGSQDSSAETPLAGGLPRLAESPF
Sequence of Glucagon-like peptide 1 receptor (P43220 whole entry): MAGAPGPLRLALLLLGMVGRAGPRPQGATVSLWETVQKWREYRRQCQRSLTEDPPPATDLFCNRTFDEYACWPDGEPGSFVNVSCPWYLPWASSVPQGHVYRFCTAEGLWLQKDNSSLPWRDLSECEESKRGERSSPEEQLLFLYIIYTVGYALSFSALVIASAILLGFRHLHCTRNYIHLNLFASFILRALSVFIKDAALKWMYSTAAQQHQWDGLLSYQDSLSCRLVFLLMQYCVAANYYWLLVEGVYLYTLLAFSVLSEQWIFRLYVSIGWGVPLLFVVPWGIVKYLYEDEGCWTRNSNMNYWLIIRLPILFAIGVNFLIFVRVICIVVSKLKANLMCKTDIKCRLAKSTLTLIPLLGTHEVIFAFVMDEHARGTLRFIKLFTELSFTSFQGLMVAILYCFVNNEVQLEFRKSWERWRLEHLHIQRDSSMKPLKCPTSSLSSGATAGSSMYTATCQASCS
Sequence of Glucagon receptor (Mus musculus, UniProt Q61606) (Q61606 whole entry): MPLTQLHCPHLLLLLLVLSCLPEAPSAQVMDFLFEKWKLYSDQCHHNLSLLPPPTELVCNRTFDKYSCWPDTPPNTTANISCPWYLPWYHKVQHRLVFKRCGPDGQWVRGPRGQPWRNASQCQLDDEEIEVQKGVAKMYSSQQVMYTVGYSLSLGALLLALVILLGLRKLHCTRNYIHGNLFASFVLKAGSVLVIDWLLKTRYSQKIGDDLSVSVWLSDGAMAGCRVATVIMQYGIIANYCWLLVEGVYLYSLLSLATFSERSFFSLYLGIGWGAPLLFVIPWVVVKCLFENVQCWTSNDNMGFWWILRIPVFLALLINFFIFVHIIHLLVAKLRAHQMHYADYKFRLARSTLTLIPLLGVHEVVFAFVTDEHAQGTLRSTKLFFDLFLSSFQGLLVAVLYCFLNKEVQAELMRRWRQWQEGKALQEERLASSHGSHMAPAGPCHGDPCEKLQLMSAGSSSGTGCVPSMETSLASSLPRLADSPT

Turning to `Cc1cccc(C2=N[C@]3(CC[C@@H](C(C)(C)C)CC3)N([C@H](C)c3ccc(C(=O)NCCC(=O)O)cc3)C2=O)c1`, the IC50 at Glucagon receptor [1] is 490 nM; on Glucagon receptor [2], 150 nM; in test [3] it was above 10000 nM; against Glucagon receptor [4], 1700 nM.
The corresponding values for `C[C@H](c1ccc(C(=O)NCCC(=O)O)cc1)N1C(=O)C(c2ccc(C(F)(F)F)cc2)=N[C@]12CC[C@@H](C(C)(C)C)CC2` are 910 nM, 170 nM, above 10000 nM and 2800 nM.
Taken in the same sequence, the figures for `C[C@H](c1ccc(C(=O)NCCC(=O)O)cc1)N1C(=O)C(c2cccc(OC(F)(F)F)c2)=N[C@]12CC[C@@H](C(C)(C)C)CC2` were 840 nM, 330 nM, 2200 nM and 1500 nM.
Consider `CC(C)C[C@H](c1ccc(C(=O)NCc2nn[nH]n2)cc1)N1C(=O)C(c2cc(Cl)cc(Cl)c2)=N[C@]12CC[C@@H](C(C)(C)C)CC2`, for which the IC50 at Glucagon receptor [1] was 760 nM; against Glucagon receptor [2], 15 nM; in test [3] it was above 10000 nM; at Glucagon receptor [4], 420 nM.
The corresponding values for `CC(Cc1ccc(C(=O)NCCC(=O)O)cc1)N1C(=O)C(c2cc(Cl)cc(Cl)c2)=N[C@]12CC[C@@H](C(C)(C)C)CC2` (stereo partly specified) are 140 nM, 190 nM, 3100 nM and 1300 nM.
The corresponding values for `C[C@H](c1ccc(C(=O)NCCC(=O)O)cc1)N1C(=O)C(c2ccccc2)=N[C@]12CC[C@@H](C(C)(C)C)CC2` are 630 nM, 360 nM, above 10000 nM and 5300 nM.
Taken in the same sequence, the figures for `CC(C)CC[C@H](c1ccc(C(=O)NCc2nn[nH]n2)cc1)N1C(=O)C(c2cc(Cl)cc(Cl)c2)=N[C@]12CC[C@@H](C(C)(C)C)CC2` were 150 nM, 22 nM, above 10000 nM and 280 nM.
With `CCCCC[C@H](c1ccc(C(=O)NCc2nn[nH]n2)cc1)N1C(=O)C(c2cc(Cl)cc(Cl)c2)=N[C@]12CC[C@@H](C(C)(C)C)CC2`, the IC50 at Glucagon receptor [1] is 130 nM; on Glucagon receptor [2] it was 24 nM; in test [3], above 10000 nM; against Glucagon receptor [4], 310 nM.
The corresponding values for `CC(C)(C)[C@H]1CC[C@]2(CC1)N=C(c1cc(Cl)cc(Cl)c1)C(=O)N2[C@H](CCC(F)(F)F)c1ccc(C(=O)NCc2nn[nH]n2)cc1` are 370 nM, 4 nM, above 10000 nM and 110 nM.
Taken in the same sequence, the figures for `CC(C)(C)CC[C@H](c1ccc(C(=O)NCc2nn[nH]n2)cc1)N1C(=O)C(c2cncc(Cl)c2)=N[C@]12CC[C@@H](C(C)(C)C)CC2` were 480 nM, 38 nM, above 10000 nM and 84 nM.
In the case of `C[C@H](c1ccc(C(=O)NCCC(=O)O)cc1)N1C(=O)C(c2ccc(F)cc2)=N[C@]12CC[C@@H](C(C)(C)C)CC2`, the concentration for half-maximal inhibition (IC50) at Glucagon receptor [1] came to 430 nM; at Glucagon receptor [2], 85 nM; in test [3], 7800 nM; against Glucagon receptor [4], 2500 nM.
As to `CC(C)(C)[C@H]1CC[C@]2(CC1)N=C(c1cc(Cl)cc(Cl)c1)C(=O)N2[C@@H](c1ccc(C(=O)NCc2nn[nH]n2)cc1)C1CC1`, the 50% inhibitory concentration (IC50) at Glucagon receptor [1] was 540 nM; against Glucagon receptor [2], 72 nM; in test [3], above 10000 nM; on Glucagon receptor [4] it was 750 nM.
Taken in the same sequence, the figures for `C[C@H](c1ccc(C(=O)NCCC(=O)O)cc1)N1C(=O)C(c2cc(F)cc(Cl)c2)=N[C@]12CC[C@@H](C(C)(C)C)CC2` were 110 nM, 6 nM, 5600 nM and 810 nM.
The corresponding values for `CC(C)(C)CC[C@H](c1ccc(C(=O)NCc2nn[nH]n2)cc1)N1C(=O)C(c2cc(F)cc(Cl)c2)=N[C@]12CC[C@@H](C(C)(C)C)CC2` are 42 nM, 10 nM, above 10000 nM and 160 nM.
